# Patent US20080167277A1, “METHODS OF TREATING SKIN DISORDERS WITH CAFFEIC ACID ANALOGS” (priority 2006, published 2008)
# System: psoriasis
# Experiment: Topical dosage form of CAPE in petroleum jelly for treating psoriasis
# Assay type: in vivo
# Details: 10.0 weight percent in petroleum jelly
# Excerpt: In some embodiments, the topical dosage forms may contain 0.5 weight percent to 20.0 weight percent of the compounds described herein. […] The weight percent of the compounds described herein within the topical dosage forms may range from 1.0 weight percent to 15.0 weight percent or 5.0 weight percent to 11.0 weight percent. Treatment regimes with the topical dosage forms may occur daily, twice daily, three times daily or four times daily for durations, for example, of three weeks or four weeks or until symptoms are no longer present.
smiles,measurement,value
"O=C(/C=C/c1ccc(O)c(O)c1)OCCc1ccccc1 [CAPE, caffeic acid phenethyl ester]",effectiveness for treating psoriasis,effective
